# From ChEMBL document CHEMBL4376820, “Homodimeric Tobramycin Adjuvant Repurposes Novobiocin as an Effective Antibacterial Agent against Gram-Negative Bacteria” (J Med Chem, 2019)
# The source made the active and inactive calls. The calls are words filed in the database; no cut-off is given here.
# Experiments:
# Pseudomonas aeruginosa [1] = assay: Synergistic antibacterial activity against wild type Pseudomonas aeruginosa PAO1 assessed as potentiation of linezolid-induced antibacterial effect incubated for 18 hrs by checkerboard assay; type: functional, organism-based
# Acinetobacter baumannii [2] = assay: Potentiation of novobiocin-induced antibacterial activity against Acinetobacter baumannii LAC-4 clinical isolate assessed as fold reduction in novobiocin MIC incubated for 18 hrs by CLSI protocol based assay relative to novobiocin MIC; type: functional
# Pseudomonas aeruginosa [3] = assay: Induction of outer membrane permeabilization in Pseudomonas aeruginosa PAO1 assessed as increase in accumulation of NPN by measuring fluorescence intensity measured immediately by NPN dye uptake assay; type: organism-based
# Pseudomonas aeruginosa [4] = assay: Potentiation of novobiocin-induced antibacterial activity against mexAB-oprM mutant deficient Pseudomonas aeruginosa PAO200 assessed as novobiocin MIC at <= 7.1 uM incubated for 18 hrs by CLSI protocol based assay (reference value: 32 ug/ml); type: functional; conditions: PAO200, 18 h
# Enterobacter cloacae [5] = assay: Antibacterial activity against colistin-resistant Enterobacter cloacae 121187 clinical solate incubated for 18 hrs by CLSI protocol based assay; type: functional; conditions: Enterobacter cloacae, 121187, 18 h
# Enterobacter cloacae [6] = assay: Potentiation of novobiocin-induced antibacterial activity against colistin-resistant Enterobacter cloacae 118568 clinical solate assessed as novobiocin MIC at <= 7.1 uM incubated for 18 hrs by CLSI protocol based assay (reference value: 1024 ug/ml); type: functional; conditions: Enterobacter cloacae, 118568, 18 h
# Escherichia coli [7] = assay: Potentiation of novobiocin-induced antibacterial activity against carbapenem-resistant Escherichia coli 107115 clinical isolate harboring mcr-1 gene assessed as novobiocin MIC at <= 7.1 uM incubated for 18 hrs by CLSI protocol based assay (reference value: 128 ug/ml); type: functional; conditions: Escherichia coli, 107115, 18 h
# Acinetobacter baumannii [8] = assay: Potentiation of novobiocin-induced antibacterial activity against Acinetobacter baumannii 110193 clinical isolate assessed as novobiocin MIC at <= 7.1 uM incubated for 18 hrs by CLSI protocol based assay (reference value: 256 ug/ml); type: functional; conditions: Acinetobacter baumannii, 110193, 18 h
# Acinetobacter baumannii [9] = assay: Potentiation of novobiocin-induced antibacterial activity against wild type Acinetobacter baumannii ATCC 17978 assessed as novobiocin MIC at <= 7.1 uM incubated for 18 hrs by CLSI protocol based assay (reference value: 16 ug/ml); type: functional; conditions: ATCC 17978, 18 h
# Klebsiella pneumoniae = assay: Bactericidal activity against Klebsiella pneumoniae 116381 assessed as log reduction in colony forming units per ml at 7.1 in LB media after 24 hrs in presence of 50.4 uM novobiocin by time-kill assay; type: functional, organism-based
# Enterobacter cloacae [10] = assay: Potentiation of novobiocin-induced antibacterial activity against Enterobacter cloacae 117029 clinical solate assessed as novobiocin MIC at <= 7.1 uM incubated for 18 hrs by CLSI protocol based assay (reference value: 1024 ug/ml); type: functional; conditions: Enterobacter cloacae, 117029, 18 h
# [11] = Toxicity in Galleria mellonella larvae MDR Acinetobacter baumannii isolate assessed as larvae protection at 50 mg/kg in combination with novobiocin measured after 24 to 96 hrs relative to control; type: ADME, organism-based; conditions: in vivo
# Pseudomonas aeruginosa [12] = assay: Antibacterial activity against carbapenem-resistant Pseudomonas aeruginosa 101885 clinical isolate incubated for 18 hrs by CLSI protocol based assay; type: functional; conditions: Pseudomonas aeruginosa, 101885, 18 h
# Pseudomonas aeruginosa [13] = assay: Antibacterial activity against carbapenem and colistin-resistant Pseudomonas aeruginosa 91433 clinical isolate incubated for 18 hrs by CLSI protocol based assay; type: functional; conditions: Pseudomonas aeruginosa, 91433, 18 h
# Acinetobacter baumannii [14] = assay: Antibacterial activity against wild type Acinetobacter baumannii ATCC 17978 assessed as resistant development at 7.1 uM in presence of novobiocin by microbroth dilution method relative to control; type: functional
# Escherichia coli [15] = assay: Potentiation of novobiocin-induced antibacterial activity against carbapenem-resistant Escherichia coli 107115 clinical isolate harboring mcr-1 gene assessed as fold reduction in novobiocin MIC incubated for 18 hrs by CLSI protocol based assay relative to novobiocin MIC; type: functional
# [16] = Toxicity in Galleria mellonella larvae assessed as survivability at 200 mg/kg measured every 6 hrs for 72 hrs; type: organism-based; conditions: in vivo
# Pseudomonas aeruginosa [17] = assay: Bactericidal activity against Pseudomonas aeruginosa PAO1 assessed as log reduction in colony forming units per ml at 7.1 uM in LB media after 24 hrs in by time-kill assay; type: functional
# Pseudomonas aeruginosa [18] = assay: Synergistic antibacterial activity against wild type Pseudomonas aeruginosa PAO1 assessed as potentiation of novobiocin-induced antibacterial effect incubated for 18 hrs by checkerboard assay relative to novobiocin alone; type: functional
# Pseudomonas aeruginosa [19] = assay: Synergistic antibacterial activity against wild type Pseudomonas aeruginosa PAO1 assessed as potentiation of aztreonam-induced antibacterial effect incubated for 18 hrs by checkerboard assay; type: functional, organism-based
# Acinetobacter baumannii [20] = assay: Antibacterial activity against colistin-resistant Acinetobacter baumannii 92257 clinical isolate incubated for 18 hrs by CLSI protocol based assay; type: functional; conditions: Acinetobacter baumannii, 92257, 18 h
# Pseudomonas aeruginosa [21] = assay: Synergistic antibacterial activity against wild type Pseudomonas aeruginosa PAO1 assessed as potentiation of minocycline-induced antibacterial effect incubated for 18 hrs by checkerboard assay relative to minocycline alone; type: functional
# Pseudomonas aeruginosa [22] = assay: Antibacterial activity against carbapenem and colistin-resistant Pseudomonas aeruginosa 114228 clinical incubated for 18 hrs by CLSI protocol based assay B84; type: functional; conditions: Pseudomonas aeruginosa, 114228, 18 h
# Acinetobacter baumannii [23] = assay: Potentiation of novobiocin-induced antibacterial activity against Acinetobacter baumannii 027 clinical isolate assessed as novobiocin MIC at <= 7.1 uM incubated for 18 hrs by CLSI protocol based assay (reference value: 8 ug/ml); type: functional; conditions: Acinetobacter baumannii, 027, 18 h
# Pseudomonas aeruginosa [24] = assay: Potentiation of novobiocin-induced antibacterial activity against carbapenem-resistant Pseudomonas aeruginosa 100036 clinical isolate assessed as novobiocin MIC at <= 7.1 uM incubated for 18 hrs by CLSI protocol based assay (reference value: 1024 ug/ml); type: functional; conditions: Pseudomonas aeruginosa, 100036, 18 h
# Pseudomonas aeruginosa [25] = assay: Antibacterial activity against wild type Pseudomonas aeruginosa PAO1 assessed as fractional inhibitory concentration index incubated for 18 hrs in presence of tobramycin by checkerboard assay; type: functional
# Pseudomonas aeruginosa [26] = assay: Antibacterial activity against carbapenem-resistant Pseudomonas aeruginosa 264-104354 clinical isolate incubated for 18 hrs by CLSI protocol based assay; type: functional; conditions: 264-104354, 18 h
# Pseudomonas aeruginosa [27] = assay: Potentiation of novobiocin-induced antibacterial activity against wild type Pseudomonas aeruginosa PAO1 assessed as fold reduction in novobiocin MIC incubated for 18 hrs by CLSI protocol based assay relative to novobiocin MIC; type: functional
# Escherichia coli [28] = assay: Potentiation of novobiocin-induced antibacterial activity against colistin-resistant Escherichia coli 94474 clinical isolate harboring mcr-1 gene assessed as fold reduction in novobiocin MIC incubated for 18 hrs by CLSI protocol based assay relative to novobiocin MIC; type: functional
# Enterobacter cloacae [29] = assay: Antibacterial activity against colistin-resistant Enterobacter cloacae 118568 clinical solate incubated for 18 hrs by CLSI protocol based assay; type: functional; conditions: Enterobacter cloacae, 118568, 18 h
# Pseudomonas aeruginosa [30] = assay: Potentiation of novobiocin-induced antibacterial activity against carbapenem and colistin-resistant Pseudomonas aeruginosa 114228 clinical isolate assessed as novobiocin MIC at <= 7.1 uM incubated for 18 hrs by CLSI protocol based assay (reference value: 512 ug/ml); type: functional; conditions: Pseudomonas aeruginosa, 114228, 18 h
# HepG2 = assay: Cytotoxicity against human HepG2 cells at 50 uM incubated for 48 hrs by PrestoBlue dye based fluorescence assay; type: cell-based; conditions: hepg2, 48 h
smiles,measurement,setting,value
NC[C@H]1O[C@H](O[C@H]2[C@H](OCCCCc3cn(CCCCO[C@@H]4[C@@H](O[C@H]5O[C@H](CO)[C@@H](O)[C@H](N)[C@H]5O)[C@H](N)C[C@H](N)[C@H]4O[C@H]4O[C@H](CN)[C@@H](O)C[C@H]4N)nn3)[C@@H](O[C@H]3O[C@H](CO)[C@@H](O)[C@H](N)[C@H]3O)[C@H](N)C[C@@H]2N)[C@H](N)C[C@@H]1O.O=C(O)C(F)(F)F.O=C(O)C(F)(F)F.O=C(O)C(F)(F)F.O=C(O)C(F)(F)F.O=C(O)C(F)(F)F.O=C(O)C(F)(F)F.O=C(O)C(F)(F)F.O=C(O)C(F)(F)F.O=C(O)C(F)(F)F.O=C(O)C(F)(F)F,Activity,Pseudomonas aeruginosa [1],Dose-dependent effect
same,Ratio,Acinetobacter baumannii [2],16
same,Activity,Pseudomonas aeruginosa [3],Dose-dependent effect
same,MIC,Pseudomonas aeruginosa [4],0.125 µg/mL
same,MIC,Enterobacter cloacae [5],> 128 µg/mL
same,MIC,Enterobacter cloacae [6],32 µg/mL
same,MIC,Escherichia coli [7],8 µg/mL
same,MIC,Acinetobacter baumannii [8],1 µg/mL
same,MIC,Acinetobacter baumannii [9],0.5 µg/mL
same,Activity,Klebsiella pneumoniae,Active
same,MIC,Enterobacter cloacae [10],8 µg/mL
same,Activity,[11],80%
same,MIC,Pseudomonas aeruginosa [12],> 128 µg/mL
same,MIC,Pseudomonas aeruginosa [13],> 128 µg/mL
same,fold change (FC),Acinetobacter baumannii [14],2
same,Ratio,Escherichia coli [15],16
same,Activity,[16],Non-Toxic
same,Activity,Pseudomonas aeruginosa [17],-3.68 CFU/ml
same,fold change (FC),Pseudomonas aeruginosa [18],4 - 128
same,Activity,Pseudomonas aeruginosa [19],Dose-dependent effect
same,MIC,Acinetobacter baumannii [20],> 128 µg/mL
same,fold change (FC),Pseudomonas aeruginosa [21],4 - 128
same,MIC,Pseudomonas aeruginosa [22],> 128 µg/mL
same,MIC,Acinetobacter baumannii [23],0.5 µg/mL
same,MIC,Pseudomonas aeruginosa [24],8 µg/mL
same,fractional inhibitory concentration index (FICI),Pseudomonas aeruginosa [25],>4
same,MIC,Pseudomonas aeruginosa [26],> 128 µg/mL
same,Ratio,Pseudomonas aeruginosa [27],128
same,Ratio,Escherichia coli [28],16
same,MIC,Enterobacter cloacae [29],> 128 µg/mL
same,MIC,Pseudomonas aeruginosa [30],16 µg/mL
same,Activity,HepG2,Non-Toxic
